The values below come from US20260374781A1, “NOVEL TRIHETEROCYCLIC COMPOUNDS” (IDENCE CO., LTD., priority 2022, published 2026).

Each structure is given as a SMILES string.

Experiment [1] concerns AsPC-1 cells. As to the kind of experiment: Cell Proliferation Assay, AsPC-1 (CellTiter-Glo 2.0 viability). The experiment is classed as cell-based. The note with it: Homo sapiens, ASPC1, 72 h, AsPC-1 pancreatic cancer (KRAS G12D mutation). Here is the method:
(§1) Test Example 3: Cell Proliferation Assay
(§2) Cell viability testing of test compounds in AsPC-1 pancreatic cancer (KRAS G12D mutation) or SW480 colon cancer (KRAS G12V mutation) cells for 72 hours
(§3) The reference compound Staurosporine was purchased from Sigma-Aldrich (Saint Louis, MI), and CellTiter-Glo® 2.0 Luminescent cell viability assay reagent (cat #G9243) was purchased from Promega (Madison, WI). AsPC-1 and SW480 cell lines were purchased from American Type Culture Collection (Manassas, VA). AsPC-1 cells were cultured with RPMI-1640 (ATCC, cat #30-2001) and SW480 cells were cultured with DMEM (ATCC cat #30-2002).
(§4) A medium supplemented with 10% FBS (Sigma-Aldrich, cat #F2442) and 100 µg/mL of penicillin-streptomycin (Sigma-Aldrich, cat #P4333) was used. Cells were cultured at 37 °C in a humidified atmosphere of 5% CO2 and 95% air.
(§5) • 1. The test compound and reference compound, Staurosporine were dissolved in DMSO solution to prepare 20 mM (test compound) and 10 mM (control compound, Staurosporine) in the Source Plate and diluted with DMSO to 3-fold and 10 doses. • 2. From the Source Plate, 10 volumes of 125 nL test compound or 25 nL reference compound were dispensed into wells of a 384-well culture plate (VWR, cat #82050-076) using Echo 655. • 3. 25 μL of culture medium including 2000 AsPC-1 or SW480 cells was dispensed into each 384-well cell culture plate. • 4. Cells were cultured with the compound for 72 hours at 37 °C and 5% CO2 conditions. • 5. 25 μL of CellTiter-Glo 2.0 reagent was added to each well of the plate. • 6. The contents were mixed for 2 minutes on an orbital shaker, and the luminescence signal was stabilized at room temperature for 15 minutes. • 7. Luminescence signals were measured with an Envision 2104 Multilabel Reader (PerkinElmer, Santa Clara, CA), and the number of surviving cells was determined through quantification of ATP present in each culture. • 8. IC50 values were calculated based on the Sigmoidal dose-response equation in the GraphPad Prism 4 program.
(In general: ATP-based viability assays read luminescence as a measure of living cells.)

Experiment [2] has as its target T1, KRAS G13D (Homo sapiens, UniProt P01116, G13D).
T1 construct: GST-tagged KRAS WT or mutant protein (amino acids 2-169)
As to the kind of experiment: KRAS Nucleotide Exchange Assay (SOS1-mediated), G13D. In kind it is biochemical. The note with it: HTRF, 60 minutes preincubation, approximately 25 minutes reaction. From the text:
(§6) Test Example 1: KRAS Nucleotide Exchange Assay
(§7) Evaluation of the inhibitory effect of compounds on SOS1-mediated nucleotide exchange activity of KIRAS^WT, KRAS^G12D, KRAS^G12V, KRAS^G12C and KRAS^G13D mutants
(§8) The assay monitors SOS1 mediated exchange of KRAS bound unlabeled GDP to fluorescently labeled GTP. The detection is based on the transfer of energy between two fluorophores when they are in close proximity. Donor is the Tb cryptate labeled anti-GST antibody and acceptor is a DY-647P1 GTP.
(§9) • GST-tagged KRAS WT or mutant protein (amino acids 2-169), • SOS1 (amino acids 564-1049), • Labeled GTP (GTP-DY-647P1), • Assay Buffer (20 mM HEPES pH 7.4, 150 mM NaCl, 5 mM MgCl2, 1 mM DTT, 0.05% BSA, 0.0025% NP40)
(§10) • 1. KRAS protein was diluted with assay buffer to reach 1.5 times of the final concentration, then mixed with Tb cryptate anti-GST antibody and added at 10 μL to each assay well (all of the final concentration was 20 nM for KRAS^WT, KRAS^G12D, and KRAS^G12V) • 2. The compound was dissolved in DMSO and diluted to prepare 100 times of the final concentration. • 3. Compounds were dispensed into assay wells using an ECHO acoustic dispenser (Beckman), mixed gently with the KRAS/Ab mixture, and incubated for 60 minutes. • 4. SOS1 and labeled GTP were mixed, diluted to 3 times of the final concentration with assay buffer, and 5 μL of the solution was added to the assay well to initiate the reaction (final concentration of labeled GTP was […], final concentration of SOS1 was 7.5 nM in WT, 12.5 nM in G12D and 50 nM in G12V). Only assay buffer and labeled GTP were added to the blank well. • 5. The reaction was monitored at Ex/Em=(337/665; 337/620) using a Pherastar Plate Reader (BMG). • 6. HTRF signals were analyzed approximately 25 minutes after the start of the reaction (60 minutes reaction for G12V). • 7. Nucleotide exchange activity is expressed as a percentage difference compared to the DMSO reaction value, and the IC50 value was calculated based on the four-parameter logistic equation in GraphPad 4.0 software.

The target of experiment [3] is T2, KRAS G12D (Homo sapiens, UniProt P01116, G12D).
T2 construct: GST-tagged KRAS WT or mutant protein (amino acids 2-169)
Kind of experiment: KRAS Nucleotide Exchange Assay (SOS1-mediated), G12D. In kind it is biochemical. The note with it: HTRF, 20 nM KRAS, 12.5 nM SOS1, 60 minutes preincubation, approximately 25 minutes reaction.
Source text: as §6, §7, §8, §9, §10
On the technique in general: Time-resolved FRET reads energy transfer from a long-lived donor to a nearby acceptor.

The target in experiment [4] is T3, KRAS G12C (Homo sapiens, UniProt P01116, G12C).
T3 construct: GST-tagged KRAS WT or mutant protein (amino acids 2-169)
Kind of experiment: KRAS Nucleotide Exchange Assay (SOS1-mediated), G12C. In kind it is biochemical. Conditions: HTRF, 60 minutes preincubation, approximately 25 minutes reaction.
Source text: as §6, §7, §8, §9, §10

Experiment [5] concerns the target T4, KRAS G12V (Homo sapiens, UniProt P01116, G12V).
T4 construct: GST-tagged KRAS WT or mutant protein (amino acids 2-169)
As to the kind of experiment: KRAS Nucleotide Exchange Assay (SOS1-mediated), G12V. The experiment is classed as biochemical. Conditions: HTRF, 20 nM KRAS, 50 nM SOS1, 60 minutes preincubation, 60 minutes reaction.
Source text: as §6, §7, §8, §9, §10

Experiment [6] deals with SW480 cells. As to the kind of experiment: Cell Proliferation Assay, SW480 (CellTiter-Glo 2.0 viability). In kind it is cell-based. Conditions: Homo sapiens; SW480 colon cancer (KRAS G12V mutation); 72 hours. The procedure:
as §1, §2, §3, §4, §5

T4 sequence (P01116 2-169 isoform P01116-2 G12V): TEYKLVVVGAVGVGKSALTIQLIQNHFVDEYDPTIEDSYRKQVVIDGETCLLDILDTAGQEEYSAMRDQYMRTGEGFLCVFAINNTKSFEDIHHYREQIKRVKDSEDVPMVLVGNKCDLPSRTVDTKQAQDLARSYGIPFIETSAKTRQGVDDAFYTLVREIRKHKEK
T2 sequence (P01116 2-169 isoform P01116-2 G12D): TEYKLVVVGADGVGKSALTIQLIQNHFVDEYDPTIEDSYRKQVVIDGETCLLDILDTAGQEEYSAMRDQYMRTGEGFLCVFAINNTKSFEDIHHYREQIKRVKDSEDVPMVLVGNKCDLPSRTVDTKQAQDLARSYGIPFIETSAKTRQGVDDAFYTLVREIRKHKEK
T3 sequence (P01116 2-169 isoform P01116-2 G12C): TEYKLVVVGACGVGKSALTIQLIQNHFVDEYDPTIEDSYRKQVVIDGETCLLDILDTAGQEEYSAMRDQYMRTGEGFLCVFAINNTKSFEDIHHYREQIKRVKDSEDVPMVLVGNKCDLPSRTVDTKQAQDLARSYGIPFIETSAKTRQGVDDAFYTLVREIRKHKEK
T1 sequence (P01116 2-169 isoform P01116-2 G13D): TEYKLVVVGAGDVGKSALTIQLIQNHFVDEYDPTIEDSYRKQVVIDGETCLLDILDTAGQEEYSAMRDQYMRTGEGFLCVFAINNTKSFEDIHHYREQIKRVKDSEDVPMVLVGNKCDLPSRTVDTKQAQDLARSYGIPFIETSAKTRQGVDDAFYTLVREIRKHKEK

For `CCc1c(F)ccc2cc(O)cc(-c3nc4c5c(nc(OC[C@@]67CCCN6C[C@H](F)C7)nc5c3F)N(C(C)c3cccnc3N)CCO4)c12` (mixture of isomers) [Example 14, 4-(10-(1-(2-aminopyridin-3-yl)ethyl)-4-fluoro-2-(((2R,7aS)-2-fluorotetrahydro-1H-pyrrolizin-7a(5H)-yl)methoxy)-9,10-dihydro-8H-7-oxa-1,3,6,10-tetraazacyclohepta[de]naphthalen-5-yl)-5-ethyl-6-fluoronaphthalen-2-ol], the IC50 (usually the concentration at which inhibition is half-maximal) in experiment [1] is below 1000 nM; in experiment [2] it was 8.71 nM; in experiment [3] it was 3.79 nM; in experiment [4], 1.78 nM; in experiment [5] it was 2.79 nM; in experiment [6], below 1000 nM.

On to `C[C@H](c1cccnc1N)N1C[C@H](C)Oc2nc(-c3cc(O)cc4ccc(F)c(F)c34)c(F)c3nc(OC[C@@]45CCCN4C[C@H](F)C5)nc1c23` (stereo in doubt) [Example 10a, 4-((S)-10-((R)-1-(2-aminopyridin-3-yl)ethyl)-4-fluoro-2-(((2R,7aS)-2-fluorotetrahydro-1H-pyrrolizin-7a(5H)-yl)methoxy)-8-methyl-9,10-dihydro-8H-7-oxa-1,3,6,10-tetraazacyclohepta[de]naphthalen-5-yl)-5,6-difluoronaphthalen-2-ol], for which the IC50 in experiment [1] was above 10000 nM; in experiment [2], 6.97 nM; in experiment [3], 3.67 nM; in experiment [4], 0.608 nM; in experiment [5], 1.59 nM.

In the case of `C#Cc1c(F)ccc2cc(O)cc(-c3nc4c5c(nc(OC[C@@]67CCCN6C[C@H](F)C7)nc5c3F)N(CC3(N(C)C)CCC3)CCO4)c12` [Example 2, 4-(10-((1-(dimethylamino)cyclobutyl)methyl)-4-fluoro-2-(((2R,7aS)-2-fluorotetrahydro-1H-pyrrolizin-7a(5H)-yl)methoxy)-9,10-dihydro-8H-7-oxa-1,3,6,10-tetraazacyclohepta[de]naphthalen-5-yl)-5-ethynyl-6-fluoronaphthalen-2-ol], the IC50 is 1000 to 10000 nM in experiment [1] and 1.34 nM in experiment [3].

Consider `CCc1c(F)ccc2cc(O)cc(-c3nc4c5c(nc(OC[C@@]67CCCN6C[C@H](F)C7)nc5c3F)N(C(C)c3cccnc3N)C[C@H](C)O4)c12` (stereo partly drawn) [Example 3, 4-((8S)-10-(1-(2-aminopyridin-3-yl)ethyl)-4-fluoro-2-(((2R,7aS)-2-fluorotetrahydro-1H-pyrrolizin-7a(5H)-yl)methoxy)-8-methyl-9,10-dihydro-8H-7-oxa-1,3,6,10-tetraazacyclohepta[de]naphthalen-5-yl)-5-ethyl-6-fluoronaphthalen-2-ol], for which the IC50 in experiment [1] is above 10000 nM; in experiment [3] it was 8.69 nM; in experiment [5] it was 3.25 nM.

With `CCc1c(F)ccc2cc(O)cc(-c3nc4c5c(nc(OC[C@@]67CCCN6C[C@H](F)C7)nc5c3F)N([C@H](C)c3cccnc3N)C[C@H](C)O4)c12` [Example 3a, 4-((S)-10-((R)-1-(2-aminopyridin-3-yl)ethyl)-4-fluoro-2-(((2R,7aS)-2-fluorotetrahydro-1H-pyrrolizin-7a(5H)-yl)methoxy)-8-methyl-9,10-dihydro-8H-7-oxa-1,3,6,10-tetraazacyclohepta[de]naphthalen-5-yl)-5-ethyl-6-fluoronaphthalen-2-ol], the results for the IC50 in experiment [1], in experiment [3] and in experiment [5] were above 10000 nM, 5.76 nM and 2.19 nM, respectively.

Regarding `CCc1c(F)ccc2cc(O)cc(-c3nc4c5c(nc(OC[C@@]67CCCN6C[C@H](F)C7)nc5c3F)N([C@@H](C)c3cccnc3N)C[C@H](C)O4)c12` [Example 3b, 4-((S)-10-((S)-1-(2-aminopyridin-3-yl)ethyl)-4-fluoro-2-(((2R,7aS)-2-fluorotetrahydro-1H-pyrrolizin-7a(5H)-yl)methoxy)-8-methyl-9,10-dihydro-8H-7-oxa-1,3,6,10-tetraazacyclohepta[de]naphthalen-5-yl)-5-ethyl-6-fluoronaphthalen-2-ol], the IC50 in experiment [3] was 176 nM; in experiment [5], 62.1 nM.
